Legend:
[1] = test system: isolated lymphoid follicles (ILFs); test: ILFs in SPF mice treated from birth with antibiotics in drinking water; assay type: in vivo; details: antibiotic in drinking water
Procedure: Antibodies, fusion proteins and antibiotics. Purified anti-CD11c (HL3) was purchased from BD Biosciences, phycoerythrin (PE)-, allophycocyanin (APC)- or biotin-conjugated anti-CD45R/B220 (RA3-6B2), and anti-CD45.2 (104) were purchased from eBiosciences, and purified anti-GFP (A-11122) and FITC-conjugated anti-rabbit polyclonal were purchased from Invitrogen. Neutralizing anti-CCL20 (114906) antibody was purchased from R&D Systems and 50-100 μg was injected i.p. in PBS twice a week. Human IgG1 and LTβR-Ig fusion protein have been previously described ^12; 100 μg protein was injected i.p. into pregnant mice 14.5 and 16.5 days after conception, or 50 μg protein was injected i.p. into newborn mice 1 day, 6 days and 12 days after birth, then 100 μg 15 days after birth. Vancomycin and colistin were purchased from Sigma and supplied to mice in the drinking water at a concentration of 500 mg/l and 1 g/l, respectively.
Immunofluorescence histology. […] Slides were examined under an Axiolmager M1 fluorescence microscope (Zeiss) equipped with a CCD camera and images were processed with AxioVision software (Zeiss). For the quantification of CPs and ILFs, 10-20 sections were cut at regular intervals through the whole thickness of flat ileal or colonic fragments of 2 cm in length and stained. CPs and ILFs were then counted under a fluorescence microscope.

Euprymna scolopes = details: squid light organ; cited from earlier work
[2] = test system: isolated lymphoid follicles (ILFs); test: ILF formation in germfree mice given peptidoglycans in the drinking water; assay type: in vivo
Procedure: Peptidoglycans. Peptidoglycan were purified from E. coli strain MC1061 as previously described ^32. Highly purified PGN (total of 100 mg) was digested with mutanolysin (Sigma) ^33 to generate the entire range of muropeptides present in E. coli PGN (Supplementary FIG. 3b). Soluble muropeptides were separated by reverse phase HPLC, and the N-acetylglucosamyl-β1,4-N-acetylmuramyl-L-alanyl-D-γ-glytamyl-meso-diaminopimelate-D-alanine (GMtetraDAP) was collected and purity tested by a new HPLC analysis (Supplementary FIG. 3b). The nature of the GMtetraDAP was confirmed by MALDI-TOF mass spectrometry analysis as previously described ^33. Muramyldipeptide (MDP) was purchased from Sigma. Mice received MDP or GMtetraDAP in drinking water at a fixed concentration of 1 μM from the age of 2 weeks (Experiment I) or form birth (experiment II) for different periods of time.
Immunofluorescence histology. Intestines were opened and washed several times in PBS before fixation overnight at 4° C. in a fresh solution of 4% paraformaldehyde (Sigma) in PBS. The samples were then washed 1 day in PBS, incubated in a solution of 30% sucrose (Sigma) in PBS until the samples sank, embedded in OCT compound 4583 (Sakura Finetek), frozen in a bath of isopentane cooled with liquid nitrogen and stocked at −80° C. Frozen blocs were cut at 8 μm thickness and sections collected onto Superfrost/Plus slides (VWR). Slides were dried 1 hour and processed for staining, or stocked at −80° C. For staining, slides were first hydrated in PBS-XG, (PBS containing 0.1% triton X-100 and 1% normal bovine serum, VWR) for 5 min and blocked with 10% bovine serum in PBS-XG for 1 hour at room temperature. […] Slides were examined under an Axiolmager M1 fluorescence microscope (Zeiss) equipped with a CCD camera and images were processed with AxioVision software (Zeiss). For the quantification of CPs and ILFs, 10-20 sections were cut at regular intervals through the whole thickness of flat ileal or colonic fragments of 2 cm in length and stained. CPs and ILFs were then counted under a fluorescence microscope.

[3] = test system: isolated lymphoid follicles (ILFs); test: ILF formation in germfree mice reconstituted with bacteria; assay type: in vivo; details: adult germfree mice reconstituted, 8 weeks
Procedure: Bacterial strains and culture. ASF bacteria include the Gram^+Clostridium propionicum (ASF 356), Lactobacillus acidophilus (ASF 360), Lactobacillus murinus (ASF 361), Eubacterium plexicaudatum (ASF 492), Firmicutes sp. (ASF 500) and Clostridium sp. (ASF 502), the Gram^−Mucispirillum schaedleri (ASF 457) and Bacteroides distasonis (ASF 519) (Supplementary FIG. 2) ^13,34, and were obtained from Taconic. The bacteria were cultured in anaerobic conditions on Schaedler agar (Difco laboratories) supplemented with 5% sterile sheep blood (Biorad) in an anaerobic Glove chamber containing a 5% CO2, 10% H2 and 85% N2 atmosphere (Jacomex). The media were pre-reduced by placing them inside the chamber 2 days prior to inoculation of bacteria. Cultures were incubated in the chamber at 37° C. for different periods of time (1-5 days) depending on the bacterial strain. […]
Bacterial colonization of germfree mice. […] Fecal pellets from inoculated mice were assessed for colonization by microscopic examination of smears and quantified by serial dilutions of stool spread on Schaedler agar plates or by quantitative PCR (qPCR). […] Mice were colonized to similar levels by strains MC1061 and MHD79 (˜2.5×10^9 cfu/g of feces) and analyzed 8 weeks after bacterial reconstitution. […]

Molecule: CN[C@H](CC(C)C)C(=O)N[C@H]1C(=O)N[C@@H](CC(N)=O)C(=O)N[C@H]2C(=O)N[C@H]3C(=O)N[C@H](C(=O)N[C@H](C(=O)O)c4cc(O)cc(O)c4-c4cc3ccc4O)[C@H](O)c3ccc(c(Cl)c3)Oc3cc2cc(c3O[C@@H]2O[C@H](CO)[C@@H](O)[C@H](O)[C@H]2O[C@H]2C[C@](C)(N)[C@H](O)[C@H](C)O2)Oc2ccc(cc2Cl)[C@H]1O [vancomycin, Vancomycin]
- formation of ILFs [1]: formed significant numbers of ILFs, but lower numbers than in control mice

Molecule: tracheal cytotoxin [TCT]
- hemocyte infiltration of crypts, epithelial apoptosis and morphogenesis (Euprymna scolopes): recapitulated by TCT alone

Molecule: CC(=O)N[C@H]1[C@H](O[C@H]2[C@H](O[C@H](C)C(=O)N[C@@H](C)C(=O)N[C@H](CCC(=O)N[C@@H](CCC[C@@H](N)C(=O)O)C(=O)N[C@H](C)C(=O)O)C(=O)O)[C@@H](NC(C)=O)C(O)O[C@@H]2CO)O[C@H](CO)[C@@H](O)[C@@H]1O (stereo partly drawn) [GMtetraDAP, N-acetylglucosamyl-β1,4-N-acetylmuramyl-L-alanyl-D-γ-glytamyl-meso-diaminopimelate-D-alanine]
- ILFs in sections from the ileum (histology) ([2]; 8 weeks old germ free mice, in drinking water from birth): ILFs were numerous and showed some level of follicular organization
- ILFs in the colon ([2]; germfree mice, 1 μM in drinking water, 10 weeks of treatment starting from birth (Experiment II)): Significant numbers of ILFs were also detected
- induction of ILFs in the ileum ([2]; germfree mice, 1 μM in drinking water, after 6 weeks of treatment): induced a significant number of ILFs, mostly iILFs

Molecule: Lactobacillus acidophilus
- induction of ileal and colonic ILFs [3]: induced no or few ILFs

Molecule: colistin
- formation of ILFs [1]: formed few ILFs
